Legend:
[1] = test system: MCF-10A; experiment: Cytotoxicity against human MCF-10A cells assessed as reduction in cell viability at 50 uM incubated for 4 days by MTT assay; type: toxicity, cell-based; settings: 96 h, time 4 day
[2] = test system: A549; experiment: Antiproliferative activity against human A549 cells by MTT assay; type: functional, cell-based
[3] = test system: MCF7; experiment: Antiproliferative activity against human MCF7 cells by MTT assay; type: functional, cell-based
[4] = test system: PANC-1; experiment: Antiproliferative activity against human PANC-1 cells by MTT assay; type: functional, cell-based
[5] = test system: HT-29; experiment: Antiproliferative activity against human HT-29 cells by MTT assay; type: functional, cell-based
[6] = molecular target: Cyclin-dependent kinase 2 (Homo sapiens, UniProt P24941)
Description: Inhibition of CDK2 (unknown origin)

[7] = molecular target: Epidermal growth factor receptor (Homo sapiens, UniProt P00533); experiment: Inhibition of EGFR (unknown origin)
Chain of Epidermal growth factor receptor (P00533 whole entry): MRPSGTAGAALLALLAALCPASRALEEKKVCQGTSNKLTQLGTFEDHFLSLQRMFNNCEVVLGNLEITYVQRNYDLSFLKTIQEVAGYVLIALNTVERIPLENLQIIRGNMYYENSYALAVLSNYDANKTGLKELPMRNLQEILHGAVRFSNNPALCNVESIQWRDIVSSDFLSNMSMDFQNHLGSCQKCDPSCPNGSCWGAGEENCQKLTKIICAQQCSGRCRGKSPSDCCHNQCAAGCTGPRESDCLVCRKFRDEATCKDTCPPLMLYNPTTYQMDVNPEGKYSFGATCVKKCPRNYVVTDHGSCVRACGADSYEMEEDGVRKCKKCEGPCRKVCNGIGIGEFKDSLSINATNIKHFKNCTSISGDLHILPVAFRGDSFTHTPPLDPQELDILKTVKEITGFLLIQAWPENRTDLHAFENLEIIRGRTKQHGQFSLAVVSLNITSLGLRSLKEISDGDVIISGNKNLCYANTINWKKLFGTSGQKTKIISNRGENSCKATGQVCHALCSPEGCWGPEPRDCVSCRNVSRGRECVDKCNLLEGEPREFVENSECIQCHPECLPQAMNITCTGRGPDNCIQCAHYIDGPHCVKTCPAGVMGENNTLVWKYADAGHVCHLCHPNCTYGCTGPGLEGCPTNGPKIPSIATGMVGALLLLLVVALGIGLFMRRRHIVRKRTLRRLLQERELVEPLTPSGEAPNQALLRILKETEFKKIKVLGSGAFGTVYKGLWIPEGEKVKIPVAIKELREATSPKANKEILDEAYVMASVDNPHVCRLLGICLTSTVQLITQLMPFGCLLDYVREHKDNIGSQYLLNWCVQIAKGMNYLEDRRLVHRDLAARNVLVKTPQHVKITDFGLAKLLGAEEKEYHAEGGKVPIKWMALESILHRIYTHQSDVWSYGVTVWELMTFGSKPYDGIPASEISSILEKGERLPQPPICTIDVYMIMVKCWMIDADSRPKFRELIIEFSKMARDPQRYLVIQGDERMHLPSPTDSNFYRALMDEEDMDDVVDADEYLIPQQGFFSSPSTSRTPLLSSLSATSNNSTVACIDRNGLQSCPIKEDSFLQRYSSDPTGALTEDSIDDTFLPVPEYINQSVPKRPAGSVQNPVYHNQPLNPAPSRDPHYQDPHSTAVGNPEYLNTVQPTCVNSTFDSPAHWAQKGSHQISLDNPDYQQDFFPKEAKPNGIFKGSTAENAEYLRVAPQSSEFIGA

Row | Compound | IC50 [2] [µM] | IC50 [3] [µM] | IC50 [4] [µM] | IC50 [5] [µM] | IC50 [6] [µM] | IC50 [7] [µM] | Activity [1] [%]
1 | CCc1c(C(=O)NCCc2ccccc2)[nH]c2ccc(C(F)(F)F)cc12 | 0.157 | 0.162 | 0.165 | 0.17 | – | – | 88
2 | CCc1c(C(=O)NCCc2ccc(N3CCOCC3)cc2)[nH]c2ccc(Br)cc12 | 0.067 | 0.074 | 0.075 | 0.079 | – | – | 91
3 | CCc1c(C(=O)NCCc2ccc(N3CCCCC3)cc2)[nH]c2ccc(C(F)(F)F)cc12 | 0.077 | 0.082 | 0.085 | 0.087 | – | – | 85
4 | CCc1c(C(=O)NCCc2ccc(N3CCOCC3)cc2)[nH]c2ccc(C(F)(F)F)cc12 | 0.043 | 0.045 | 0.052 | 0.055 | 0.024 | 0.094 | 87
5 | Cc1c(C(=O)NCCc2ccc(F)cc2)[nH]c2cc(F)ccc12 | – | – | – | – | 0.034 | 0.098 | –
6 | CCc1c(C(=O)NCCc2ccc(N(C)C)cc2)[nH]c2ccc(Br)cc12 | 0.108 | 0.112 | 0.115 | 0.12 | – | – | 91
7 | CCc1c(C(=O)NCCc2ccc(N3CCCC3C)cc2)[nH]c2ccc(Br)cc12 (stereo not given) | 0.172 | 0.185 | 0.19 | 0.197 | – | – | 86

Further lines, with some results ahead:

Row | IC50 [2] [µM] | IC50 [3] [µM] | IC50 [4] [µM] | IC50 [5] [µM] | IC50 [6] [µM] | IC50 [7] [µM] | Compound | Activity [1] [%]
8 | 0.117 | 0.123 | 0.13 | 0.13 | – | – | CCc1c(C(=O)N2CCN(c3ccccc3)CC2)[nH]c2ccc(C(F)(F)F)cc12 | 91
9 | 0.125 | 0.132 | 0.137 | 0.14 | – | – | CCc1c(C(=O)N2CCN(c3ccccc3)CC2)[nH]c2ccc(C)cc12 | 90
10 | 0.089 | 0.093 | 0.097 | 0.097 | – | – | CCc1c(C(=O)NCCc2ccc(N3CCCCC3)cc2)[nH]c2ccc(Br)cc12 | 90
11 | 0.064 | 0.069 | 0.072 | 0.075 | 0.046 | 0.134 | CCc1c(C(=O)NCCc2ccccc2)[nH]c2ccc(C)cc12 | 87
12 | 0.185 | 0.19 | 0.195 | 0.202 | – | – | CCc1c(C(=O)N2CCN(c3ccccc3)CC2)[nH]c2ccc(Br)cc12 | 85
13 | 0.051 | 0.054 | 0.059 | 0.057 | 0.033 | 0.117 | CCc1c(C(=O)NCCc2ccc(N3CCCCC3)cc2)[nH]c2ccc(C)cc12 | 89
14 | 0.034 | 0.042 | 0.035 | 0.037 | 0.016 | 0.085 | CCc1c(C(=O)NCCc2ccc(N3CCOCC3)cc2)[nH]c2ccc(C)cc12 | 89
15 | 0.138 | 0.142 | 0.145 | 0.148 | – | – | CCc1c(C(=O)NCCc2ccccc2)[nH]c2ccc(Br)cc12 | 89

Reference: ChEMBL document CHEMBL5252675, “Discovery of new 5-substituted-indole-2-carboxamides as dual epidermal growth factor receptor (EGFR)/cyclin dependent kinase-2 (CDK2) inhibitors with potent antiproliferative action” (RSC Med Chem, 2023)
